# Test results: US9856298B2 (priority 2011, dated 2018)
# Numbered stars: 1 amine (or outer) side, 2 acyl side, 3 side chain; on linkers, the order of the positions; unused ones are H or OH. Square brackets hold non-standard residues; d marks the D form. Primed or numbered codes have the meaning given here. Side chains are listed from the residue outwards. Ends that are not written are not given here. Peptide text beside a SMILES is read from it. * marks the point of attachment. Orn(α-tetramethylguanidino) = CN(C)C(=N[C@@H](CCCN)C(=O)*)N(C)C; δOrn(α-TMG) = CN(C)C(=N[C@@H](CCCN[*:1])C(=O)[*:2])N(C)C; Guan″ = guanidino group at the N-terminus, N=C(N)*; sPEG750 = PEG of 750 linked via acid group; Orn = NCCC[C@H](N)C(=O)O
# Experiments:
# [1] = tested on: Escherichia coli strain BL21AI; assay: Minimum inhibitory concentration in 1% TSB; assay type: cell-based; conditions: E. coli BL21AI, 1% TSB, 20 hours at 37° C.
# In short: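 Peptides in twofold dilution series in 1% TSB, 128 μg/ml down to 62.5 ng/ml, mixed 1:1 with bacteria for 4×10^5 bacteria per well. Incubated 20 h at 37° C; growth read as absorbance at 595 nm.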
# [2] = Serum stability / release of peptide in 25% aqueous mouse serum (RP-HPLC, MALDI-MS); conditions: 25% (v/v) aqueous mouse serum
# Description: (§1) 30 μl of a 1 mg/ml peptide solution were diluted with 120 μl of water and, after addition of 50 of serum, incubated at 37° C. for 0 hours, 0.5 hour, 1 hour, 2 hours or 4 hours. Alternatively, the peptide derivatives having a starting concentration of 3 mg/ml were diluted with serum to a final concentration of 15 μg/ml. According to the stability of the peptides, the samples were analysed at the times mentioned above or after 0 hours, 4 hours and 6 hours. The serum proteins were precipitated by addition of 50 μl of 15% TCA, and the supernatant was neutralised with 25 μl of 1 mol/l NaOH. The samples were made up to 250 μl with 5% B, 230 μl of the solution were transferred into a HPLC vial, and 220 μl were injected.
# (§2) RP-HPLC analysis was carried out with a linear acetonitrile gradient (Biosolve BV, Valkenswaard, Netherlands) in the presence of 0.1% trifluoroacetic acid (TFA, UV grade, Fluka Chemie GmbH, Buchs, Switzerland) as ion-pair reagent. The fractions were co-crystallised with α-cyanohydroxycinnamic acid (Bruker Daltonik GmbH; Bremen, Germany) as matrix (4 mg/ml in 60% acetonitrile in 0.1% aqueous TFA) and analysed with a tandem mass spectrometer (MALDI-TOF/TOF-MS, 4700 Proteomics Analyzer; Applied Biosystems GmbH, Weiterstadt, Germany) in positive-ion reflector mode. The amount of intact peptides and their degradation products or metabolites could thus be identified and quantified at the individual times. 25% aqueous mouse serum, which was analysed in parallel for the same time intervals, was used as control.
# [3] = tested on: Escherichia coli strain BL21AI; assay: Minimum inhibitory concentration in TSB in the presence of 25% mouse serum; assay type: cell-based; conditions: E. coli BL21AI, TSB with 25% mouse serum, 20 hours at 37° C.
# Description: To that end, the peptides were dissolved in water and diluted in a two-fold dilution series with 1% aqueous soybean medium (TSB) in sterile 96-well plates (Greiner Bio-One GmbH) from 128 μg/ml in twelve dilution steps to 62.5 ng/ml. Overnight cultures of Escherichia coli strain BL21AI were adjusted with 1% TSB to about […] colony forming units per ml. In each case 50 μl of peptide solution per well were then mixed with in each case 50 μl of the bacteria solution, in order to achieve a starting concentration of 4×10^5 bacteria per well. After incubation for 20 hours at 37° C., the absorption at 595 nm was determined (microplate reader, TECAN Trading AG).
# In addition, the antibacterial activity was also determined in the presence of 25% mouse serum. To that end, the MIC values were determined as described above, but 25 μl of mouse serum were also added to each well before the incubation (25% final concentration).
# [4] = mammalian serum (25%); cited from earlier work
# [5] = mouse
# Description: as §1, §2
Compound,MIC in TSB [1],half-life at 150 µg/ml [2],MIC in TSB/mouse serum [3],Time to degradation in mammalian serum [4],Half-life (t1/2) in 25% serum [5]
CC[C@H](C)[C@H](NC(=O)[C@H](Cc1ccc(O)cc1)NC(=O)[C@@H](NC(=O)[C@@H]1CCCN1C(=O)[C@H](CCCNC(=N)N)NC(=O)[C@H](CC(N)=O)NC(=O)[C@H](CC(N)=O)NC(=O)[C@H](CCCNC(=O)CNC(=O)[C@H](CO)NC(=O)[C@H](CCCNC(=N)N)NC(=O)[C@H](C)NC(=O)CN)N=C(N(C)C)N(C)C)C(C)C)C(=O)N1CCC[C@H]1C(=O)N[C@@H](CCCNC(=N)N)C(=O)N1CCC[C@H]1C(=O)N[C@@H](CCCNC(=N)N)C(=O)N1CCC[C@H]1C(=O)N1CCC[C@H]1C(=O)N[C@@H](Cc1c[nH]cn1)C(=O)N1CCC[C@H]1C(=O)N[C@@H](CCCNC(=N)N)C(=O)N[C@@H](CC(C)C)C(=O)O [Api 137 (GARSG)] (H-GARSG[δOrn(α-TMG)]NNRPVYIPRPRPPHPRL-OH),0.9 µM,0.5 h,,,
CC[C@H](C)[C@H](NC(=O)[C@H](Cc1ccc(O)cc1)NC(=O)[C@@H](NC(=O)[C@@H]1CCCN1C(=O)[C@H](CCCNC(=N)N)NC(=O)[C@H](CC(N)=O)NC(=O)[C@H](CC(N)=O)NC(=O)[C@H](CCCNC(=O)CNC(=O)[C@H](CO)NC(=O)[C@H](CCCNC(=N)N)NC(=O)CN)N=C(N(C)C)N(C)C)C(C)C)C(=O)N1CCC[C@H]1C(=O)N[C@@H](CCCNC(=N)N)C(=O)N1CCC[C@H]1C(=O)N[C@@H](CCCNC(=N)N)C(=O)N1CCC[C@H]1C(=O)N1CCC[C@H]1C(=O)N[C@@H](Cc1c[nH]cn1)C(=O)N1CCC[C@H]1C(=O)N[C@@H](CCCNC(=N)N)C(=O)N[C@@H](CC(C)C)C(=O)O [Api 137 (GRSG)] (H-GRSG[δOrn(α-TMG)]NNRPVYIPRPRPPHPRL-OH),0.7 µM,1 h,,,
"CC[C@H](C)[C@H](NC(=O)[C@H](Cc1ccc(O)cc1)NC(=O)[C@@H](NC(=O)[C@@H]1CCCN1C(=O)[C@H](CCCNC(=N)N)NC(=O)[C@H](CC(N)=O)NC(=O)[C@H](CC(N)=O)NC(=O)[C@H](CCCN)N=C(N(C)C)N(C)C)C(C)C)C(=O)N1CCC[C@H]1C(=O)N[C@@H](CCCNC(=N)N)C(=O)N1CCC[C@H]1C(=O)N[C@@H](CCCNC(=N)N)C(=O)N1CCC[C@H]1C(=O)N1CCC[C@H]1C(=O)N[C@@H](Cc1c[nH]cn1)C(=O)N1CCC[C@H]1C(=O)N[C@@H](CCCNC(=N)N)C(=O)N[C@@H](CC(C)C)C(=O)O [Api 137, Guan-ONNRPVYIPRPRPPHPRL-OH, reference compound] ({Orn(α-tetramethylguanidino)}-NNRPVYIPRPRPPHPRL-OH)",0.46 µM,> 6 h,0.23 µM,,
GKPRPYSPRPTSHPRPIRV [drosocin],,,,degraded within an hour,
Guan-O(sPEG^750-GARSG)NNRPVYIPRPRPPHPRL-OH ({Guan″}-[Orn]NNRPVYIPRPRPPHPRL-OH; not fully specified (residue 1)) [Api 137 (sPEG^750-GARSG)],1.1 µM,,,,1 h
Guan-O(sPEG^750-GRSG)NNRPVYIPRPRPPHPRL-OH ({Guan″}-[Orn]([Gly-Ser-Arg-Gly-sPEG750])NNRPVYIPRPRPPHPRL-OH) [Api 137 (sPEG^750-GRSG)],,,,,2 h
